Source: US20210330611A1, “THERAPY FOR NEUROLOGICAL DISEASES/DISORDERS” (priority 2020, published 2021)
Like-named read-outs stand apart in the source and are kept apart here.

Experiments:
[1] = test system: fibrin-induced microglia activation; assay: Image-based assay of fibrin-induced microglia activation (HTS and dose response); type: cell-based, rat; conditions: for inhibition at 10 µM: Rattus norvegicus, Microglia, read-out: Fibrin % inhibition
primary rat microglia [2] = assay: Cell toxicity (dead cells, size <150 μm2) in LPS assay
[3] = test system: LPS-induced microglia activation; assay: Image-based assay of LPS-induced microglia activation (HTS and dose response); type: cell-based, rat; conditions: for inhibition at 10 µM: Rattus norvegicus, Microglia, read-out: LPS % inhibition
primary rat microglia [4] = assay: Cell toxicity (dead cells, size <150 μm2) in coated fibrin (cFib) assay;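 note: share of dead cells sized under 150 µm2 at 10 µM in fibrin-stimulated microglia HTS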
[5] = test system: fibrin- and LPS-induced microglia activation; assay: cells; type: cell-based, rat
[6] = primary HTS, 10 μM, fibrin-stimulated primary microglia
[7] = primary HTS, 10 μM, LPS assay, dead cells size <150 μm2
[8] = primary HTS, 10 μM, LPS-stimulated primary microglia
[9] = primary HTS, 10 μM, fibrin assay, dead cells size <150 μm2
[10] = quadrant by fibrin and LPS inhibition in HTS of 1907 compounds
[11] = primary microglia HTS, 10 μM, fibrin-stimulated, cell size >800 μm^2 as marker of activation
[12] = primary microglia HTS, 10 μM, LPS assay, cell size <150 μm^2 as marker of toxicity
[13] = primary microglia HTS, 10 μM, LPS-stimulated, cell size >800 μm^2 as marker of activation
[14] = primary microglia HTS, 10 μM, fibrin assay, cell size <150 μm^2 as marker of toxicity
[15] = HTS of 1907 compounds, quadrant by fibrin and LPS inhibition
[16] = primary microglia HTS, fibrin stimulation, increased cell size (>800 μm^2) as marker of activation
[17] = primary microglia HTS, LPS stimulation, decreased size (<150 μm^2) as marker of toxicity
[18] = primary microglia HTS, fibrin stimulation, decreased size (<150 μm^2) as marker of toxicity
[19] = 48 h, primary microglia HTS, LPS stimulation, increased cell size (>800 μm^2) as marker of activation

## C=C[C@@]1(C)CC(=O)[C@]2(O)[C@@]3(C)[C@@H](O)CCC(C)(C)[C@@H]3[C@H](O)[C@H](OC(C)=O)[C@@]2(C)O1 [Colforsin]
[1]; [6]
  inhibition at 10 µM: 46%
Primary rat microglia [2]; [7]
  LPS % cell toxicity: 0%
[3]; [8]
  inhibition at 10 µM: 26%
Primary rat microglia [4]; [9]
  Fibrin % cell toxicity: 1%
[5]; primary HTS, 10 μM
  Quadrant (FIG. 5b): Q4

## CO/N=C(\C(=O)N[C@@H]1C(=O)N2C(C(=O)O)=C(COC(C)=O)CS[C@H]12)c1csc(N)n1 [Cefotaxime Sodium]
[1]; [6]
  Fibrin % inhibition: −1%
Primary rat microglia [2]; [7]
  LPS % cell toxicity: 0%
[3]; [8]
  LPS % inhibition: 3%
Primary rat microglia [4]; [9]
  Fibrin % cell toxicity: 0%
[5]; primary HTS, 10 μM
  Quadrant (FIG. 5b): Q4

## NP(N)(=O)NC(=O)c1ccc(F)cc1 [Flurofamide]
[1]; primary microglia HTS, fibrin stimulation, activation = cell size >800 μm2
  inhibition at 10 µM: 3%
Primary rat microglia [2]; primary microglia HTS, LPS stimulation, toxicity = cell size <150 μm2
  LPS % cell toxicity: 0%
[3]; 48 h, primary microglia HTS, LPS stimulation, activation = cell size >800 μm2
  inhibition at 10 µM: -12%
Primary rat microglia [4]; primary microglia HTS, fibrin stimulation, toxicity = cell size <150 μm2
  Fibrin % cell toxicity: 0%
[5]; [10]
  Quadrant (FIG. 5b): Q4

## CCCC(C)(COC(N)=O)COC(=O)NC(C)C (stereo not shown) [Carisoprodol]
[1]; [6]
  inhibition at 10 µM: 1%
Primary rat microglia [2]; [7]
  LPS % cell toxicity: 0%
[3]; [8]
  inhibition at 10 µM: -1%
Primary rat microglia [4]; [9]
  Fibrin % cell toxicity: 0%
[5]; primary HTS, 10 μM
  Quadrant (FIG. 5b): Q4

## CCCCNc1ccc(C(=O)OCCN(C)C)cc1 [Tetracaine]
[1]; [11]
  inhibition at 10 µM: 4%
Primary rat microglia [2]; [12]
  LPS % cell toxicity: 1%
[3]; [13]
  inhibition at 10 µM: 9%
Primary rat microglia [4]; [14]
  Fibrin % cell toxicity: 1%
[5]; [15]
  Quadrant (FIG. 5b): Q4

## COC(=O)C[C@](O)(CCCC(C)(C)O)C(=O)O[C@@H]1C(OC)=C[C@]23CCCN2CCc2cc4c(cc2[C@H]13)OCO4 [Homoharringtonie]
[1]; [16]
  Fibrin % inhibition: 106%
Primary rat microglia [2]; [17]
  LPS % cell toxicity: 67%
[3]; primary microglia HTS, LPS stimulation, increased cell size (>800 μm^2) as marker of activation
  LPS % inhibition: 106%
Primary rat microglia [4]; [18]
  Fibrin % cell toxicity: 90%
[5]; [10]
  Quadrant (FIG. 5b): Q2

## CC1(O)CCC(C(C)(C)O)CC1.O (stereo not shown) [Terpene Hydrate]
[1]; [11]
  Fibrin % inhibition: −6%
Primary rat microglia [2]; [12]
  LPS % cell toxicity: 0%
[3]; [13]
  LPS % inhibition: 8%
Primary rat microglia [4]; [14]
  Fibrin % cell toxicity: 1%
[5]; [15]
  Quadrant (FIG. 5b): Q4

## COc1ccccc1OCC(O)COC(N)=O (stereo not shown) [Methocarbamol]
[1]; [16]
  inhibition at 10 µM: 4%
Primary rat microglia [2]; [17]
  LPS % cell toxicity: 0%
[3]; [19]
  inhibition at 10 µM: 10%
Primary rat microglia [4]; [18]
  Fibrin % cell toxicity: 0%
[5]; [10]
  Quadrant (FIG. 5b): Q4

## Cc1ccc(C(=O)C(C)CN2CCCCC2)cc1 (stereo not shown) [Tolperisone]
[1]; [11]
  inhibition at 10 µM: -7%
Primary rat microglia [2]; [12]
  LPS % cell toxicity: 0%
[3]; [13]
  inhibition at 10 µM: 11%
Primary rat microglia [4]; [14]
  Fibrin % cell toxicity: 1%
[5]; [15]
  Quadrant (FIG. 5b): Q4

## NC(=O)c1ccc[n+]([C@@H]2O[C@H](COP(=O)([O-])OP(=O)(O)OC[C@H]3O[C@@H](n4cnc5c(N)ncnc54)[C@H](O)[C@@H]3O)[C@@H](O)[C@H]2O)c1 [Nadide]
[1]; [16]
  inhibition at 10 µM: -14%
Primary rat microglia [2]; [17]
  LPS % cell toxicity: 0%
[3]; [19]
  inhibition at 10 µM: 5%
Primary rat microglia [4]; [18]
  Fibrin % cell toxicity: 1%
[5]; [10]
  Quadrant (FIG. 5b): Q4

## COc1ccc2[nH]c([S+]([O-])Cc3ncc(C)c(OC)c3C)nc2n1 (stereo not shown) [Tenatoprazole]
[1]; [11]
  inhibition at 10 µM: -17%
Primary rat microglia [2]; [12]
  LPS % cell toxicity: 0%
[3]; [13]
  inhibition at 10 µM: 9%
Primary rat microglia [4]; [14]
  Fibrin % cell toxicity: 1%
[5]; [15]
  Quadrant (FIG. 5b): Q4

## CCn1cc(C(=O)O)c(=O)c2cc(F)c(N3CCNCC3)nc21 [Enoxacin]
[1]; [16]
  inhibition at 10 µM: 113%
Primary rat microglia [2]; [17]
  LPS % cell toxicity: 12%
[3]; [19]
  inhibition at 10 µM: 119%
Primary rat microglia [4]; [18]
  Fibrin % cell toxicity: 84%
[5]; [10]
  Quadrant (FIG. 5b): Q2

## CNCCc1ccccn1 [Betahistine]
[1]; [6]
  inhibition at 10 µM: -29%
Primary rat microglia [2]; [7]
  LPS % cell toxicity: 0%
[3]; [8]
  inhibition at 10 µM: 13%
Primary rat microglia [4]; [9]
  Fibrin % cell toxicity: 1%
[5]; primary HTS, 10 μM
  Quadrant (FIG. 5b): Q4

## Cc1cc2c(OCC(CNC(C)(C)C)OC(=O)c3ccccc3)cccc2[nH]1 (stereo not shown) [Bopindolol]
[1]; [16]
  inhibition at 10 µM: 105%
Primary rat microglia [2]; [17]
  LPS % cell toxicity: 2%
[3]; [19]
  inhibition at 10 µM: 81%
Primary rat microglia [4]; [18]
  Fibrin % cell toxicity: 6%
[5]; [10]
  Quadrant (FIG. 5b): Q2
